This passage reports IC50 results from patent publication US8614219B2, “Substituted pyrimidin-4-one derivatives” (Sanofi-aventis, priority 2008, dated 2013).

Sequence of GSK3β (P49841 whole entry): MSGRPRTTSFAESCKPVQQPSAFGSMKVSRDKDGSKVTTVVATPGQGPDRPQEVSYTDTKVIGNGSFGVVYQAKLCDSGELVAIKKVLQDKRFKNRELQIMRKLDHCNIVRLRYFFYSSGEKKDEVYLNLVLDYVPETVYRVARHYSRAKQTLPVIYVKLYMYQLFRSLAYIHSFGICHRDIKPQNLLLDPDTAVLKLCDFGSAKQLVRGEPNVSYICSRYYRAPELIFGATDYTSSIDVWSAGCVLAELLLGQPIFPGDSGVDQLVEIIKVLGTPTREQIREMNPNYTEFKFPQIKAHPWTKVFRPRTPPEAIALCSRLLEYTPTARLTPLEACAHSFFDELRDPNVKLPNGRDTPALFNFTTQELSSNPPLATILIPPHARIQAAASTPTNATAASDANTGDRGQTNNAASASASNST

The test addresses GSK3β (Homo sapiens, UniProt P49841). Kind of test: Inhibitory activity against GSK3β (33P-ATP phosphorylation of prephosphorylated GS1 peptide, four protocols). It counts as biochemical. Particulars: protocol 4: commercial GSK3beta (Millipore), 7.5 μM GS1 peptide, 10 μM ATP, 50 mM Hepes pH 7.2, 90 minutes at room temperature. As to the method: Four different protocols can be used. In a first protocol: 7.5 μM of prephosphorylated GS1 peptide and 10 μM ATP (containing 300,000 cpm of ^33P-ATP) were incubated in 25 mM Tris-HCl, pH 7.5, 0.6 mM DTT, 6 mM MgCl2, 0.6 mM EGTA, 0.05 mg/ml BSA buffer for 1 hour at room temperature in the presence of GSK3beta (total reaction volume: 100 microliters). In a second protocol: 4.1 μM of prephosphorylated GS1 peptide and 42 μM ATP (containing 260,000 cpm ^33P-ATP) were incubated in 80 mM Mes-NaOH, pH 6.5, 1 mM Mg acetate, 0.5 mM EGTA, 5 mM 2-mercaptoethanol, 0.02% Tween 20, 10% glycerol buffer for 2 hours at room temperature in the presence of GSK3beta. In a third protocol: 7.5 μM of prephosphorylated GS1 peptide and 10 μM ATP (containing 300,000 cpm of ^33P-ATP) were incubated in 50 mM Hepes, pH 7.2, 1 mM DTT, 1 mM MgCl2, 1 mM EGTA, 0.01% Tween 20 buffer for one hour at room temperature in the presence of GSK3beta (total reaction volume: 100 microliters). In a fourth protocol: 7.5 μM of prephosphorylated GS1 peptide and 10 μM ATP (containing 300,000 cpm of ^33P-ATP) were incubated in 50 mM Hepes, pH 7.2, 1 mM DTT, 1 mM MgCl2, 1 mM EGTA, 0.01% Tween 20 buffer for 90 minutes at room temperature in the presence of commercial GSK3beta (Millipore) (total reaction volume: 100 microliters). Inhibitors were solubilized in DMSO (final solvent concentration in the reaction medium, 1%). The reaction was stopped with 100 microliters of a solution made of 25 g polyphosphoric acid (85% P2O5), 126 ml 85% H3PO4, H2O to 500 ml and then diluted to 1:100 before use. An aliquot of the reaction mixture was then transferred to Whatman P81 cation exchange filters and rinsed with the solution described above. Incorporated ^33P radioactivity was determined by liquid scintillation spectrometry. The phosphorylated GS-1 peptide had the following sequence: NH2-[…](P)EDEE-COOH. (Woodgett, J. R. (1989) Analytical Biochemistry 180, 237-241.
In general, IC50 refers to the concentration needed to halve the response being measured. The compound `COc1cc(Cl)ccc1C(=O)NCC1CCCCn2c1nc(-c1ccncn1)cc2=O` (racemic) [compound No. 2 of table 2, (+/−)-4-Chloro-2-methoxy-N-(4-oxo-2-pyrimidin-4-yl-4,6,7,8,9,10-hexahydro-pyrimido[1,2-a]azepin-10-ylmethyl)-benzamide] registered an IC50 of 30 nM.
As to `COc1ccccc1NC(=O)C1CCCn2c1nc(-c1ccncn1)cc2=O` (racemic) [compound No. 1 of table 1, (+/−)-4-oxo-2-pyrimidin-4-yl-6,7,8,9-tetrahydro-4H-pyrido[1,2-a]pyrimidine-9-carboxylic acid N-(2-methoxy-phenyl)-amide], 27 nM corresponded to half-maximal inhibition (IC50).
As for `COc1cc(Cl)ccc1C(=O)NCC1CCCn2c1nc(-c1ccncn1)cc2=O` (racemic) [compound No. 8 of table 1, (+/−)-4-Chloro-2-methoxy-N-(4-oxo-2-pyrimidin-4-yl-6,7,8,9-tetrahydro-4H-pyrido[1,2-a]pyrimidin-9-ylmethyl)-benzamide], the figure is 19 nM.
